Article PMC5087326 (Biochemical and biophysical research communications, 2016)

Columns and labels:
LXRβ = target: T1, LXRβ (Homo sapiens, UniProt P55055); experiment: LXRE-driven luciferase cotransfection assay in HEK293 cells; assay type: cell-based
T1 sequence (P55055 1-460): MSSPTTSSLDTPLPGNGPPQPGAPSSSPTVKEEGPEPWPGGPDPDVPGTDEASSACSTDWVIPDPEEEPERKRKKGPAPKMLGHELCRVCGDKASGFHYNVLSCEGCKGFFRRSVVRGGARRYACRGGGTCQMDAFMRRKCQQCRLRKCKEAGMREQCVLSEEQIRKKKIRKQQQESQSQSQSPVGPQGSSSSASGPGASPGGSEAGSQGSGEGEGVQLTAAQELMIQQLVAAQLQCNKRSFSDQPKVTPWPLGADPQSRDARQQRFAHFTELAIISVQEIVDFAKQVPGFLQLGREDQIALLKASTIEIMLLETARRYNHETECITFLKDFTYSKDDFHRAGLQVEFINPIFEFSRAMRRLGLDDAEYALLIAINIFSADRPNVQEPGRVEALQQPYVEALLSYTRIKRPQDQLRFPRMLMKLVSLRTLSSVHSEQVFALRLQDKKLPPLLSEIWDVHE

LXRα = target: T2, LXRα (Homo sapiens, UniProt Q13133); experiment: Luminex coregulator peptide recruitment with LXRα LBD at […]; assay type: cell-based
T2 sequence (Q13133 209-447 limits assumed): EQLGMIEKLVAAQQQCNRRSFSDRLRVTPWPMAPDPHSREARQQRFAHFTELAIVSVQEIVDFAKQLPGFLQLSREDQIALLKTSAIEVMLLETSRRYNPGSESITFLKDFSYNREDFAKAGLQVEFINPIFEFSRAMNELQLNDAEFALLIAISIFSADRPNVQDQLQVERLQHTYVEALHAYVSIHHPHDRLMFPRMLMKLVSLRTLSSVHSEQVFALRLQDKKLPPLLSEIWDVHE

IC50 (LXRβ): 9 nM | IC50 (LXRα): 17 nM
Structure (SMILES): Cc1cc(C)c(S(=O)(=O)N(Cc2ccc(-c3cccc(S(C)(=O)=O)c3)cc2)Cc2ccc(C(F)(F)F)o2)c(C)c1 [GSK2033]
